According to publication PMC10447463, “Data-mining unveils structure–property–activity correlation of viral infectivity enhancing self-assembling peptides” (Nature Communications, 2023):
Where two headings read alike, the source gives them in different places.

How the values were obtained:
[1] = test system: TZM-bl cells; format: cell-based; conditions: CellTiter-Glo, mean of n = 3 replicates; for viability 0.26 µM: peptide 0.26 µM; for viability 1.3 µM: peptide 1.3 µM; for viability 6.5 µM: peptide 6.5 µM
Summary of the method: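 CellTiter-Glo luminescence, normalized to 100% metabolic activity, gave cytotoxicity readout for TZM-bl cells exposed to peptide serial dilutions for 3 days; 10,000 cells seeded, triplicate measurements.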

[2] = ref sieste 2021 or Schilling2019, cited from earlier work
From the text: Supplement 41467_2023_40663_MOESM7_ESM.zip/FigS17.csv, table | column: Conversion Rate / % ( from sieste 2021 or Schilling2019)

[3] = Zeta-potential measurement; format: physicochemical; conditions: for Zeta-pot. / mV: zeta potential of peptide, Fig S15 source data
Summary of the method: (§1)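 One-day room-temperature aggregation at 1 mg/mL in PBS (pH 7.4) preceded measurement; samples then went into 1 mM KCl. Triplicates per sample, two independent experiments averaged.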

[4] = Turbidity, derived count rate of scattered light; format: physicochemical; conditions: for Log Count Rate: log of derived count rate; for Count Rate: turbidity
Summary of the method: as §1

[5] = category 1 or 0 from count rate, key not given
[6] = derived count rate of scattered light, mean, std deviation in next column
[7] = derived count rate of scattered light, mean, std deviation in separate column
[8] = derived count rate of scattered light
[9] = Fig S8 panels A, C, asymmetric log errors
[10] = Fig S8 panels B, D, derived count rate of scattered light

| Substance | viability 0.26 µM [1] | viability 1.3 µM [1] | viability 6.5 µM [1] | Conversion Rate / % ( from sieste 2021 or Schilling2019) [2] | Zeta category ( +1 = if > 4 mV;-1 = if < -4 mV; 0 = -4mV to 4 mV) [3] | Zeta category ( +1 = if > 4 mV;-1 = if < -4 mV; 0 = -4mV to 4 mV) ([3]; category from zeta potential) | Zeta Pot. / mV ([3]; mean, Std Zeta in next column) | Zeta Pot. / mV ([3]; mean, Std in separate column) | Zeta-pot. / mV [3] | Zeta Count Rate Category ([4]; category 1/0, no key printed) | Zeta Count Rate Category [4, 5] | Zeta Count Rate / kcps [4, 6] | Zeta Count Rate / kcps [4, 7] | Zeta Count Rate / kcps [4, 8] | Log Count Rate [4, 9] | Log Count Rate ([4]; Fig S8 panels B, D) | Count Rate [4, 10] | other results |
| --- | --- | --- | --- | --- | --- | --- | --- | --- | --- | --- | --- | --- | --- | --- | --- | --- | --- | --- |
| KIKIQINM [JGB2] | 119.1 | 112 | 103.3 | 64% | 1 (+1 = if > 4 mV) | 1 (+1 = if > 4 mV) | 8.51 mV | 8.51 mV | 8.51 mV | 1 | 1 | 262.1 kcps | 262.1 kcps | – | – | – | – | – |
| MKFKFQF [DF5 / CK16] | 101.4 | 111.3 | 99.71 | 75% | 0 (0 = -4mV to 4 mV) | – | -3.133 mV | – | -3.133 mV | 1 | – | 124 kcps | – | – | – | – | – | – |
| CKIKQIINM [BL1] | 107.4 | 104.1 | 87.1 | – | 1 (+1 = if > 4 mV) | 1 (+1 = if > 4 mV) | 12.9 mV | 12.9 mV | 12.9 mV | – | 1 | 9058 kcps | 9058 kcps | 9058 kcps | – | – | – | Conversion Rate / % ( from sieste 2021 or Schilling2019) ([2]; previously reported peptides only): 45%; Zeta Pot. / mV [3]: 12.9 mV; Zeta Count Rate Category ([4]; category 1 / 0, no key given): 1 |
| CKIKIQI [MG3b] | 107.8 | 105.2 | 91.32 | 54% | 1 (+1 = if > 4 mV) | 1 (+1 = if > 4 mV) | 12.8 mV | 12.8 mV | 12.8 mV | 1 | 1 | 2432.9 kcps | 2432.9 kcps | – | 3.386 | 3.386 | 2432.9 | Zeta category ( +1 = if > 4 mV;-1 = if < -4 mV; 0 = -4mV to 4 mV) ([3]; FigS26): 1 (+1 = if > 4 mV); Zeta category ( +1 = if > 4 mV;-1 = if < -4 mV; 0 = -4mV to 4 mV) ([3]; category derived from the zeta potential): 1 (+1 = if > 4 mV); Zeta Count Rate Category ([4]; category 1 or 0 derived from the count rate, key not given): 1; Zeta Count Rate / kcps ([4]; derived count rate from zeta measurement, mean): 2432.9 kcps; Zeta Count Rate Category ([4]; key not given): 1 |
| KFKFQFNMWQ [JG4] | 119.1 | 111.9 | 101.1 | 94% | 1 (+1 = if > 4 mV) | 1 (+1 = if > 4 mV) | 25.4 mV | 25.4 mV | 25.4 mV | 1 | 1 | 734.6 kcps | 734.6 kcps | 734.6 kcps | 2.866 | 2.866 | 734.63 | Conversion Rate / % ( from sieste 2021 or Schilling2019) ([2]; literature value): 94%; Zeta Pot. / mV ([3]; mean, Std Zeta in separate column): 25.4 mV; Zeta Count Rate Category ([4]; category from count rate, key not given): 1 |
| CSISIQI [TM141] | 98.15 | 96.88 | 81.12 | 82% | -1 (-1 = if < -4 mV) | – | -25.93 mV | – | -25.93 mV | 1 | – | 10241.1 kcps | – | – | 4.01 | 4.01 | 10241.1 | – |
